How the values were obtained:
BTK = target: T1, BTK (Homo sapiens, UniProt Q06187); assay: Translational PK/PD model: simulated BTK occupancy in human spleen/tissues; settings: from prediction model of spleen BTK occupancy and HED
T1 construct: simulate BTK occupancy in human spleen/tissues across a range of doses; from tissue; host or cells: human spleen/tissues (simulated, not sampled)
Description: The purpose of this analysis was to characterize the pharmacokinetics (PK) of LOU064 in healthy volunteers and to use a previously developed, translational target occupancy model to simulate BTK occupancy in human spleen/tissues across a range of doses and dosing regimen (B.I.D vs QD).
Pharmacokinetic data from a Phase I clinical study reported by Kaul et al. (2021) were used in the current analysis, including 102 patients.
A translational target occupancy model to simulate BTK occupancy in spleen/tissues was developed using a two-step approach.
In a first step, a population PK model was established to describe LOU064 PK data from Phase I clinical study reported by Kaul et al. (2021). In a second step, the parameter estimates from the population PK model were used in the BTK occupancy model to predict BTK occupancy in blood and spleen/tissues. Ultimately the BTK occupancy model was used to predict the BTK occupancy in spleen/tissues for different dosing regimens (QD, B.I.D) at different doses.

PBMC-derived mast cells = assay: FcER-induced degranulation of PBMC-derived mast cells; assay type: cell-based; settings: Homo sapiens, Mast cell; n=7 donors; read-out: IC50, degranulation of primary human PBMC-derived mast cells (β-tryptase)
Description: cells (PBMC)-derived mast cells Rationale and method: Primary human mast cells were derived from CD34-positive progenitor cells isolated from PBMC ((Neuberger, M.S. et al. (1985), Nature 314 (6008), pp 268-70. doi: 10.1038/314268a0). Blood from healthy volunteers was provided under informed consent and collected through the Novartis Tissue Donor Program in accordance with the Swiss Human Research Act and approval of the responsible ethic committee (Ethikkommission Nordwest-und Zentralschweiz). Briefly, CD34-positive cells were isolated from peripheral blood by positive selection and cultured in medium containing SCF, IL-6 and IL-3. After a 6 week differentiation culture, mast cells were harvested and characterized phenotypically for expression of c-Kit (CD117) and FcERI. The degranulation is based on NIP haptenized BSA and the NIP-specific chimeric IgE antibody JW8 (described in RD-2013-00412). The mast cells were sensitized with JW8 IgE antibody and then incubated with serial compound dilutions for 30 minutes at 37° C. Then degranulation was triggered by adding haptenized NIP-BSA to crosslink the FcER. After one hour, supernatants were collected and analyzed for β-tryptase levels.

[1] = test system: human primary skin-derived mast cells; assay: Histamine release from skin-derived human mast cells; assay type: cell-based; settings: Mast cell, n=2 donors
Description: Rationale and method: Skin tissue was used as a source of primary human tissue mast cells. Surgical skin discard samples were provided under informed consent and collected by the University Hospital Basel in accordance with the Swiss Human Research Act and approval of the responsible ethic committee (Ethikkommission Nordwest und Zentralschweiz). Skin tissue was dissociated and intact mast cells were prepared according to the protocol of Kulka and Metcalfe (Kulka et al. 2010, current protocols in Immunology; SUPPL. 90:1-11). The isolated mast cells were characterized phenotypically and used for a degranulation assay as described above ((Neuberger, M.S. et al. (1985), Nature 314 (6008), pp 268-70. doi: 10.1038/314268a0). The mast cells were sensitized with JW8 IgE antibody and then pre-incubated with serial compound dilutions for 30 minutes at 37° C. Then degranulation was triggered by adding haptenized NIP-BSA to crosslink the FcERI. After 30 minutes, supernatants were collected and analyzed for histamine with an HTRF-based immunoassay (Cisbio Bioassays).

patients with CSU = assay: Phase 2b core study in CSU: safety; assay type: in vivo, human
[2] = LOU064 levels in blood, RPA study; assay type: in vivo, mice
Description: Female C57BI6 mice (Charles River, France), 8-10 weeks of age, were used. The back of the mice was shaved 24 hours prior to the skin injections. This allowed any potential irritation of the skin to resolve. The Arthus reaction was triggered two hours after compound dosing in the dose-response study or at the timepoints noted in the time-course study. To elicit the Arthus reaction, 50 μl of PBS (control site) or polyclonal rabbit anti-ovalbumin IgG at a concentration of 30 μg in PBS (C6534, Sigma) was injected i.d. into the dorsal skin. The intradermal injection was followed immediately by an i.v. injection of 200 μl ovalbumin (20 mg/kg) in saline (05450 Fluka). Three hours after the injection of the ovalbumin the mice were killed, bled for monitoring of the compound concentration and the spleens removed for BTK occupancy measurement. The thickness of the injected control and anti-ovalbumin IgG skin sites was measured using a digital caliper, and the thickness of the anti-ovalbumin IgG injected sites minus the saline control sites were then calculated for the mice in all treatment groups.
Blood samples were taken as denoted and compound measurement was performed. Blood samples were spiked with a structurally similar internal standard mixed with acetonitrile (4 volumes) and centrifuged at ˜ 4000 rpm (4° C.). Supernatant was then transferred into a microtiter plate. An aliquot of each sample was injected into an LC-MS/MS system for determination of concentrations of the parent molecule.

[3] = Core study, Any dose, N = 267, listed as remibrutinib

T1 sequence (Q06187 whole entry): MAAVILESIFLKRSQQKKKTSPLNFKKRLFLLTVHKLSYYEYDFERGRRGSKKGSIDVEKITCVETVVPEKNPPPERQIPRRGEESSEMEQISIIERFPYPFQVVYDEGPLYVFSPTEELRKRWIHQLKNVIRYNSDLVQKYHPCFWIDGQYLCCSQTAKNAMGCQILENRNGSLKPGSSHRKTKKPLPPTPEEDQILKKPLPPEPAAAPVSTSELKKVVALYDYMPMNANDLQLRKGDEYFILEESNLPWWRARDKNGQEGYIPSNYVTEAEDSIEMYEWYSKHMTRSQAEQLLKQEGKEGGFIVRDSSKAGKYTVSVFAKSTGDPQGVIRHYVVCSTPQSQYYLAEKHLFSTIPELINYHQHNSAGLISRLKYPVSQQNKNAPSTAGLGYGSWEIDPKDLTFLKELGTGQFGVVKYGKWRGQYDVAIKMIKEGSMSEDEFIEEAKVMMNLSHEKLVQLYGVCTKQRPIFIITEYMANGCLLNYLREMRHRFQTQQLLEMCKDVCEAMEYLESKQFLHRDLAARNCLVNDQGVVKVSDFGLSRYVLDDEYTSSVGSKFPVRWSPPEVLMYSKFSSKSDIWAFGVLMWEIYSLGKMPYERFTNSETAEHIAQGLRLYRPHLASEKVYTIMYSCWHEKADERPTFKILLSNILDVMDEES

C=CC(=O)N(C)CCOc1c(N)ncnc1-c1cc(F)cc(NC(=O)c2ccc(C3CC3)cc2F)c1C [LOU064, N-(3-(6-amino-5-(2-(N-methylacrylamido)ethoxy)pyrimidin-4-yl)-5-fluoro-2-methylphenyl)-4-cyclopropyl-2-fluorobenzamide]
Minimal human effective dose (BTK): 25 mg b.i.d | IC50 (PBMC-derived mast cells): 5.7 nM | IC50 [1]: 16.5 nM | Patients with newly occurring ALT>5xULN (patients with CSU; CS, normalised on treatment): 1 patient | Patients with ≥1 AE (patients with CSU; Core study, 10 mg b.i.d., N = 44): 21 n | Patients with ≥1 AE (patients with CSU; Core study, 10 mg q.d., N = 44): 29 n | Patients with ≥1 AE (patients with CSU; Core study, 25 mg b.i.d., N = 43): 26 n | Patients with ≥1 AE (patients with CSU; Core study, 35 mg q.d., N = 44): 23 n | Patients with ≥1 AE (patients with CSU; Core study, 100 mg b.i.d., N = 45): 29 n | Patients with ≥1 AE (patients with CSU; Core study, 100 mg q.d., N = 47): 27 n | Headache (AEs by PT) (patients with CSU; [3]): 9.7% | Infections and infestations (AEs by primary system organ class) (patients with CSU; [3]): 24.0% | Skin and subcutaneous tissue disorders (AEs by primary system organ class) (patients with CSU; [3]): 16.9% | concentration at 5 h ([2]; female, C57BI6, mouse, whole blood, oral, 3 mg/Kg single p.o., 5 hours after dosing): 2.04 nM | concentration at 5 h ([2]; female, C57BI6, mouse, whole blood, oral, 10 mg/Kg single p.o., 5 hours after dosing, Mean ± SD): 2.87 ± 0.58 nM | concentration at 5 h ([2]; female, C57BI6, mouse, whole blood, oral, 30 mg/Kg single p.o., 5 hours after dosing, Mean ± SD): 25.2 ± 20.9 nM | concentration at 5 h ([2]; female, C57BI6, mouse, whole blood, oral, 100 mg/Kg single p.o., 5 hours after dosing, Mean ± SD): 140 ± 63.9 nM | concentration at 5 h ([2]; female, C57BI6, mouse, whole blood, single oral dose of 30 mg/kg, 5 hours post-dose, Mean ± SD (n = 5)): 28.4 ± 18.2 nM | concentration at 8 h ([2]; female, C57BI6, mouse, whole blood, single oral dose of 30 mg/kg, 8 hours post-dose, Mean ± SD (n = 5)): 9.2 ± 6.7 nM | Concentration in blood ([2]; single oral dose of 30 mg/kg, 19 hours post-dose): Below LLOQ
